Measurements reported in patent US20050032687A1, “Method and composition for the modulation of angiogenesis” (priority 2001, published 2005).
“Also recorded” adds a separate entry of the source.

Key:
G6PD [1] = assay: G6PD activity in BAEC; assay type: cell-based, bovine; conditions: for G6PD activity: VEGF 100 ng/ml
Description: (§1) To investigate the role of G6PD in vascular endothelial cell proliferation, we initially sought to determine if growth factors involved in angiogenesis, such as vascular endothelial growth factor (VEGF), influenced G6PD activity.
(§2) To examine further the role of G6PD in VEGF-mediated cell proliferation, we next inhibited G6PD activity by exposing BAEC to dehydroepiandrosterone (DHEA) ([…]), a noncompetitive inhibitor of G6PD, for 24 hr.
(§3) As a control, we used a phosphorothioate oligodeoxynucleotide with a scrambled sequence (SS).
(§4) We have recently constructed an adenoviral vector incorporating murine G6PD cDNA (93% homologous to the rat cDNA).

[2] = tested on: bovine aortic endothelial cells (BAEC); assay: Cellular NADPH levels in BAEC; assay type: cell-based; conditions: for cellular NADPH levels: VEGF 100 ng/ml
Description: as §1, §4

[3] = tested on: bovine aortic endothelial cells (BAEC); assay: Endothelial cell proliferation by [3H]-thymidine incorporation; assay type: cell-based
Description: FIGS. 1A and 1B show G6PD and endothelial cell proliferation. BAEC were treated with DHEA to decrease G6PD activity and stimulated with VEGF (100 ng/ml) for 8 hr (1A). Cell proliferation is measured by [^3H]-Thymidine incorporation. G6PD expression was inhibited by trans(in)fection with an antisense oligonucleotide to G6PD mRNA (AS) or a scrambled control (SS) and proliferation was determined by [^3H]-Thymidine incorporation (1B). Results are expressed as counts per minute (cpm) and data presented as mean±SEM. *p<0.01 vs.−VEGF.**p<0.01 vs.−DHEA or −SS.
as §2, §3, §4

[4] = tested on: bovine aortic endothelial cells (BAEC); assay: Cell death by lactate dehydrogenase activity measured in the media; assay type: cell-based; conditions: DHEA-treated BAEC
Description: as §2

[5] = tested on: bovine aortic endothelial cells (BAEC); assay: Cell migration in modified Boyden chamber; assay type: cell-based; conditions: for cell migration (fluorescence), result in words: BAEC; for cell migration: VEGF-stimulated BAEC (100 ng/ml, 18 hr) with eNOS inhibitor (L-NAME 1 mmol/L, L-NMMA 100 μmol/L)
Description: Fluorescently labeled, BAEC were stimulated with VEGF (100ng/ml) for 18 hr and cell migration was assessed in a modified Boyden Chamber.
BAEC were fluorescently labeled with calcein AM (Molecular Probes, Inc.) and 0.4×10^3 cells were loaded to the top of a pre-fitted membrane filter that fit a specially designed 96-well microplate. The microplate wells were loaded with serum-free media and VEGF (100 ng/ml) for 18 hr., and cells were allowed to migrate across the membrane. The plate was then analyzed using a fluorescent microplate reader.

[6] = tested on: bovine aortic endothelial cells (BAEC); assay: Cell-wounding migration assay; assay type: cell-based; conditions: VEGF 100 ng/ml, serum-free media, 18 hr
Description: FIGS. 3A-D show G6PD and endothelial cell migration.
We next examined the role of G6PD on VEGF-stimulated endothelial cell migration. In a cell-wounding migration assay, BAEC were grown to confluence on a P100 culture dish. Using a sterile scalpel, a vertical incision was made in the midline of the dish, and under microscopic guidance, BAEC were removed from one-half of the plate. BAEC were then incubated with VEGF (100 ng/ml) in serum-free media, and cell migration across the midline was observed after 18 hr and quantified by the average cell count in 5 high powered fields.

G6PD [7] = assay: G6PD expression by Western analysis in BAEC; assay type: cell-based, bovine
Description: as §1, §3, §4

[8] = tested on: bovine aortic endothelial cells (BAEC); assay: Endothelial cell tube formation on Matrigel; assay type: cell-based; conditions: VEGF 100 ng/ml for 12 hr
Description: FIGS. 5A and B show G6PD and Tube Formation. BAEC were transfected with an antisense oligodecocynucleotide to G6PD and mRNA (AS) or a scrambled control (SS) and plated on Matrigel. Cells were then stimulated with VEGF and tube formation was assessed visually (5A) and quantified using area analysis with background substration (5B). Results of area analysis are the average of 10 high-powered fields.
FIGS. 6A and B show G6PD overexpression and tube formation. G6PD expression was increased via adenoviral-mediated gene transfer. BAEC were then placed on Matrigel and stimulated with VEGF ([…]).
To examine the role of G6PD in endothelial cell tube formation in vitro, we plated BAEC on Matrigel and stimulated cells with VEGF (100ng/ml) for 12 hr. Results were quantified using NIH Image to determine area of tube formation. Under basal conditions, BAEC plated on Matrigel formed tubes and networks that were increased following exposure to VEGF.
In order to confirm that G6PD importantly modulates tube formation in vitro, we next increased G6PD expression via adenoviral-mediated gene transfer and examined tube formation.

[9] = tested on: C3H wild-type (WT) and hemizygous male (HEMI) mice; assay: In vivo Matrigel plug migration assay; set-up: species or system mouse
Description: To examine the effect of G6PD activity on angiogenesis in vivo, we performed an in vivo Matrigel migration assay in C3H wild-type (WT) and hemizygous male (HEMI) mice. Matrigel, derived from mouse basement membrane proteins, was implanted subcutaneously in the groin area to form a Matrigel “plug”. Each mouse was injected on one side with either Matrigel alone, or Matrigel supplemented with VEGF (100 ng/ml). In this manner, each animal could serve as its own control. Plugs were left in place for 14 days. Following this time, the animals were euthanized, plugs excised with surrounding tissue for orientation, and embedded and sectioned in paraffin. Sections were then stained with Hematoxylin & Eosin (H&E). Images were captured digitally and assessed for cell counts. For orientation purposes, a representative Matrigel plug from a WT mouse at 4× (right) and 20× (left) magnification is shown below (FIG. 9).
These findings were quantified by counting cells in 10 randomly selected high-power (20×) fields per image in 3 successive images. […] These findings confirm that G6PD modulates angiogenesis in vivo.
We next wanted to determine if we could “rescue” the G6PD-deficient phenotype using gene transfer to increase local G6PD expression. We treated Matrigel with an adenoviral vector encoding for G6PD implanted plugs in HEMI mice for 7 days in the presence or absence of VEGF (FIG. 13).

[10] = DHEA-treated or AS transfection for 5 hours

## C[C@]12CC[C@H](O)CC1=CC[C@@H]1[C@@H]2CC[C@]2(C)C(=O)CC[C@@H]12 [DHEA, dehydroepiandrosterone]
G6PD [1]; [10]
  reduction in G6PD activity: 60%
[2]; [10]
  decrease in the level of cellular NADPH: 30%
[3]; basal conditions (DHEA 100 pmol/L for 24 hr; AS or SS transfected)
  [3H]-thymidine incorporation: 9,967±1,531 cpm
[3]; following stimulation with VEGF 100 ng/ml for 8 hr
  [3H]-thymidine incorporation: 8,902±1,451 cpm
[4]
  cell death by lactate dehydrogenase activity in the media: not the result of increased cell death
[5]; VEGF 100 ng/ml, 18 hr
  cell migration (fluorescence), result in words: abrogated; also recorded: VEGF did not significantly increase migration
[6]
  cell migration across the midline, average cell count: 10±2 cells/hpf

## COC(=O)[C@@H](N)CCCNC(=N)N[N+](=O)[O-] [L-NAME]
[5]
  cell migration: 23.6±17 units

## CNC(=N)NCCC[C@H](N)C(=O)O [L-NMMA]
[5]
  cell migration: 21.6±7.3 units

## VEGF
G6PD [1]; 24 hr
  G6PD activity: 87±19 units/6 min/mg protein
G6PD [1]; after 4 hr
  G6PD activity: 182.7±37 units/6 min/mg protein
[2]; 4 hr
  cellular NADPH levels: 0.5±0.04 mmoles/mg protein
[2]; 24 hr
  cellular NADPH levels: 0.4±0.08 mmoles/mg protein
G6PD [7]
  G6PD expression: did not increase G6PD expression
[8]
  tube formation / vessel area: increased
[5]; BAEC with normal G6PD activity, VEGF 100 ng/ml, 18 hr
  cell migration as fluorescence: 55.3±6.6 units
[5]; VEGF 100 ng/ml, 18 hr
  cell migration (fluorescence), result in words: significant increase in fluorescence
[6]
  cell migration across the midline, average cell count: 28±6 cells/hpf
[9]; HEMI mice, 7 days
  cell migration into the Matrigel plug: not increased significantly
[9]; HEMI mice, 14 days, Matrigel with VEGF 100 ng/ml
  cell migration into the Matrigel plug: did not significantly improve this response
[9]; WT mice, 14 days, Matrigel with VEGF 100 ng/ml
  cell migration into the Matrigel plug: increased the number of cells migrating into the Matrigel plug
